The record followed here is patent publication US20240018158A1, “BRM TARGETING COMPOUNDS AND ASSOCIATED METHODS OF USE” (Prelude Therapeutics Incorporated, priority 2020, published 2024).

Some results are limits rather than exact numbers.

The target of one assay is SMARCA4 (Homo sapiens (Human), UniProt P51532). Nature of the assay: SMARCA4 HiBiT degradation assay in HeLa cells. The conditions noted are these: 18 hours; for DC50: read-out: DC50 (SM4-HeLa) SMARCA4 degradation potency; for Dmax: HeLa, read-out: Dmax % (SM4-HeLa) maximum SMARCA4 degradation within the concentrations tested. It is filed as cell-based. The method in brief: (§1)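 HeLa monoclonal lines carrying a heterozygous HiBiT knock-in on SMARCA2 or SMARCA4 were seeded at 2500 cells/well in EMEM with 10% FBS. After 18 h compound exposure at 37 °C, Nano-Glo HiBiT lytic detection ran 30-60 min at RT before the luminescence read. Values are from curve fits.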

The next assay has as its target SMARCA2 (Homo sapiens (Human), UniProt P51531). Nature of the assay: SMARCA2 HiBiT degradation assay in HeLa cells. Format: cell-based. The settings on record: 18 hours; for DC50: read-out: DC50 (SM2-HeLa) SMARCA2 degradation potency; for Dmax: read-out: Dmax % (SM2-HeLa) maximum SMARCA2 degradation within the concentrations tested. The method in brief: as §1
A general note: HiBiT is a short tag that completes a luciferase, so light tracks the accessible tagged protein.

SMARCA2, sequence (P51531 whole entry): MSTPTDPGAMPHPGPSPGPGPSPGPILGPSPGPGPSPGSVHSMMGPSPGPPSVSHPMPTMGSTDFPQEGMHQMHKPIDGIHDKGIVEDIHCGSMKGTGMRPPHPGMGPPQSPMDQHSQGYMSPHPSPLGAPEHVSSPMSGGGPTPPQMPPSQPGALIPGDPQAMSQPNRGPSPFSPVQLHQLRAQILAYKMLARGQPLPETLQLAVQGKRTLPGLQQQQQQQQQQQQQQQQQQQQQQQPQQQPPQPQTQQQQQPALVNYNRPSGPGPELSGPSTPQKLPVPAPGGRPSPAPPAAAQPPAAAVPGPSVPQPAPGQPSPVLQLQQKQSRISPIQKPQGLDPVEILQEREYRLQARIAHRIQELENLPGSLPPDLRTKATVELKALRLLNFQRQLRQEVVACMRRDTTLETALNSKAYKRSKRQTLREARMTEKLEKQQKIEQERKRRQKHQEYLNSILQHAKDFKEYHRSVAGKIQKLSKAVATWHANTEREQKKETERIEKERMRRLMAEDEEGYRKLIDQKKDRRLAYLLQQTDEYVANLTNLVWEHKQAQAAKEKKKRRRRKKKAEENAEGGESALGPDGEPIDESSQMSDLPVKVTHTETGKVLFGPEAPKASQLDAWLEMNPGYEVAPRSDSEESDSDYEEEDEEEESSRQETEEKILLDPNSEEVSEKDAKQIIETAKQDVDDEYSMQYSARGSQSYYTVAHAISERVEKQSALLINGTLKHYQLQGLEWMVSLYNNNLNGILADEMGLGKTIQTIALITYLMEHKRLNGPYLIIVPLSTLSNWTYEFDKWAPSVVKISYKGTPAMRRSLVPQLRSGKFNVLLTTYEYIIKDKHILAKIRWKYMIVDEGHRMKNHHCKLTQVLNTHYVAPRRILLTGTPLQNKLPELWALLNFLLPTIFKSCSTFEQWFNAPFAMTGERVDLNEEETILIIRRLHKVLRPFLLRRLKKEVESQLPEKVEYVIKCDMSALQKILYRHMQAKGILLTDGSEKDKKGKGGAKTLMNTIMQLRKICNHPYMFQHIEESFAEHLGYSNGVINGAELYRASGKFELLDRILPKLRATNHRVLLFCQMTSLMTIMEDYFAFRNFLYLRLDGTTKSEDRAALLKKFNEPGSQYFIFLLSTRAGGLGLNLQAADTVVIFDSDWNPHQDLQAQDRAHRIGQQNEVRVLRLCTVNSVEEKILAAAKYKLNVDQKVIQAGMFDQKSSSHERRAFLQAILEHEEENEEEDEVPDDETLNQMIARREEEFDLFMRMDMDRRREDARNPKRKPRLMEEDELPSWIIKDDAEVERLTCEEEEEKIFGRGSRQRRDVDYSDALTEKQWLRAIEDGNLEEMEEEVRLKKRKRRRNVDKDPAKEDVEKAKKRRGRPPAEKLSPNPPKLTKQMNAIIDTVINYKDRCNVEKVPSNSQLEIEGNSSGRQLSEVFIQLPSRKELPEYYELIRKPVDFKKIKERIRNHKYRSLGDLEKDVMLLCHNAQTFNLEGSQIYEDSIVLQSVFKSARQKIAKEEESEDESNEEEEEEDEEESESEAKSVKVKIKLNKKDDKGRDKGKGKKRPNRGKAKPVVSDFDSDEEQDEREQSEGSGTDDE
SMARCA4, sequence (P51532 whole entry): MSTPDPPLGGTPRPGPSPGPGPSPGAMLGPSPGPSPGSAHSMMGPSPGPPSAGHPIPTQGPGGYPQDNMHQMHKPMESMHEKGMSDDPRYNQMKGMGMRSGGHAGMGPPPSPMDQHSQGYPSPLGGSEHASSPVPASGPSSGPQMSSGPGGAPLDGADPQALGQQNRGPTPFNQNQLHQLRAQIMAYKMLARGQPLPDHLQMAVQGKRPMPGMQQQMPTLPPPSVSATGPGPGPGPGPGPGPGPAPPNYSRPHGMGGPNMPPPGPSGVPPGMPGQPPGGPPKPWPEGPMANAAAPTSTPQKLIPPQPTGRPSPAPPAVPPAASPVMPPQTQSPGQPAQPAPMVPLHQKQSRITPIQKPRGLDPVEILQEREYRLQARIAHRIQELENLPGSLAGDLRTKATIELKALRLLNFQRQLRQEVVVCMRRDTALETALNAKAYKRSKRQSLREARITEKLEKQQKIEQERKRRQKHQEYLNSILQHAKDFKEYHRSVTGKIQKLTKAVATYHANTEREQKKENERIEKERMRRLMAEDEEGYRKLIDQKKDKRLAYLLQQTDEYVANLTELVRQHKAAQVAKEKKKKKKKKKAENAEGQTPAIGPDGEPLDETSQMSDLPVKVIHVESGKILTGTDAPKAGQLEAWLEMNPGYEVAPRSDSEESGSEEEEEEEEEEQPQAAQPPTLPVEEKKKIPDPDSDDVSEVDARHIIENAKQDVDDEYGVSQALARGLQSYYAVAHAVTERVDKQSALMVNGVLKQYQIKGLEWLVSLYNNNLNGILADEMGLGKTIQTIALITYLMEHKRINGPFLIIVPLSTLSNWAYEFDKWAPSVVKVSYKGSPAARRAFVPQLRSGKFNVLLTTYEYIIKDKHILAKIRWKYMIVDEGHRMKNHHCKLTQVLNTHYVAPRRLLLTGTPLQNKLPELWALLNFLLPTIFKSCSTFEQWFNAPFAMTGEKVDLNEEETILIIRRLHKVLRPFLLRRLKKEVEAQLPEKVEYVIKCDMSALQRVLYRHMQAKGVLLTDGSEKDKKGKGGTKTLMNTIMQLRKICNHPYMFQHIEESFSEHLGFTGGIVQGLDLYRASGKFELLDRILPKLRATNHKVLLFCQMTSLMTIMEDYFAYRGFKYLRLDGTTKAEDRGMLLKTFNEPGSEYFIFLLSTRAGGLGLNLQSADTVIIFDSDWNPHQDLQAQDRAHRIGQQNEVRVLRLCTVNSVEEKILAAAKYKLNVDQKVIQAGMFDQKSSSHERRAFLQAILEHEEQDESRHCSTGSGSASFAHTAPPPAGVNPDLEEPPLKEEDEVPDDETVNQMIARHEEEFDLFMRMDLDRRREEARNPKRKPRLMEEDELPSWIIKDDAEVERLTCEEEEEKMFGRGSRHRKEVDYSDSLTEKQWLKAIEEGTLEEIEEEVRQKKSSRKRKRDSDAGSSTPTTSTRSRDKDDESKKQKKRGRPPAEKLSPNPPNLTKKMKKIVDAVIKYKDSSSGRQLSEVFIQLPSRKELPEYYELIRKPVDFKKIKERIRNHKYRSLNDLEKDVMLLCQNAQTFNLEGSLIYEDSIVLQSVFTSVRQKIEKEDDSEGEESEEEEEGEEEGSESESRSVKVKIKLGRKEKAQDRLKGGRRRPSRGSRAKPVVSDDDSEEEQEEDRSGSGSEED

Regarding `CCC(CN1CCC(N2CCN3c4cc(-c5ccccc5O)nnc4NC[C@H]3C2)CC1)Oc1cc([C@H](C(=O)N2C[C@H](O)C[C@H]2C(=O)N[C@@H](C)c2ccc(-c3scnc3C)cc2)C(C)C)on1` (stereo partly drawn) [Example 60, (2S,4R)-4-hydroxy-1-(2-(3-((1-(4-((S)-2-(2-hydroxyphenyl)-5,6,6a,7,9,10-hexahydro-8H-pyrazino[1′,2′:4,5]pyrazino[2,3-c]pyridazin-8-yl)piperidin-1-yl)butan-2-yl)oxy)isoxazol-5-yl)-3-methylbutanoyl)-N-((S)-1-(4-(4-methylthiazol-5-yl)phenyl)ethyl)pyrrolidine-2-carboxamide], on SMARCA4, the DC50 (commonly the concentration giving 50% degradation) was less than 100 nM and the Dmax was 50 to 75%. At SMARCA2, the DC50 is less than 100 nM and the Dmax was greater than 75%.

On to `CCC(CN1CCC(N2CCN3c4cc(-c5ccccc5O)nnc4NC[C@H]3C2)C1)Oc1cc(C(C(=O)N2C[C@H](O)C[C@H]2C(=O)N[C@@H](C)c2ccc(-c3scnc3C)cc2)C(C)C)on1` (stereo partly drawn) [Example 61, (2S,4R)-4-hydroxy-1-(2-(3-((1-(3-((S)-2-(2-hydroxyphenyl)-5,6,6a,7,9,10-hexahydro-8H-pyrazino[1′,2′:4,5]pyrazino[2,3-c]pyridazin-8-yl)pyrrolidin-1-yl)butan-2-yl)oxy)isoxazol-5-yl)-3-methylbutanoyl)-N-((S)-1-(4-(4-methylthiazol-5-yl)phenyl)ethyl)pyrrolidine-2-carboxamide], for which, on SMARCA4, the “Dmax % (SM4-HeLa) maximum SMARCA4 degradation within the concentrations tested” value was “B (B = 50%< Dmax <=75%)” and the DC50 was less than 100 nM. In addition, on SMARCA2, the DC50 was less than 100 nM and the Dmax is greater than 75%.

On to `CCC(CN1CCC(N2CCN3c4cc(-c5ccccc5O)nnc4NC[C@H]3C2)C1)Oc1cc(C(C(=O)N2C[C@H](O)C[C@H]2C(=O)N[C@@H](C)c2ccc(-c3scnc3C)cc2)C(C)C)on1` (stereo partly drawn) [Example 62, (2S,4R)-4-hydroxy-1-(2-(3-((1-(3-((S)-2-(2-hydroxyphenyl)-5,6,6a,7,9,10-hexahydro-8H-pyrazino[1′,2′:4,5]pyrazino[2,3-c]pyridazin-8-yl)pyrrolidin-1-yl)butan-2-yl)oxy)isoxazol-5-yl)-3-methylbutanoyl)-N-((S)-1-(4-(4-methylthiazol-5-yl)phenyl)ethyl)pyrrolidine-2-carboxamide], for which, at SMARCA4, the “Dmax % (SM4-HeLa) maximum SMARCA4 degradation within the concentrations tested” value is given as “A/A (A = Dmax >75%)” and the DC50 is less than 100 nM. Moreover, on SMARCA2, the “Dmax % (SM2-HeLa) maximum SMARCA2 degradation within the concentrations tested” value is given as “A/A (A = Dmax >75%)” and the DC50 was less than 100 nM.

Turning to `Cc1ncsc1-c1ccc([C@H](C)NC(=O)[C@@H]2C[C@@H](O)CN2C(=O)[C@@H](c2cc(OCCN3CCC(N4CCN5c6cc(-c7ccccc7O)nnc6NCC5(C)C4)CC3)no2)C(C)C)cc1` (stereo partly drawn) [Example 63, (2S,4R)-4-hydroxy-1-((2R)-2-(3-(2-(4-(2-(2-hydroxyphenyl)-6a-methyl-5,6,6a,7,9,10-hexahydro-8H-pyrazino[1′,2′:4,5]pyrazino[2,3-c]pyridazin-8-yl)piperidin-1-yl)ethoxy)isoxazol-5-yl)-3-methylbutanoyl)-N-((S)-1-(4-(4-methylthiazol-5-yl)phenyl)ethyl)pyrrolidine-2-carboxamide], on SMARCA4, the 50% degradation concentration (DC50) is less than 100 nM and the Dmax was greater than 75%. Besides, at SMARCA2, the DC50 is less than 100 nM and the Dmax was greater than 75%.

Turning to `Cc1ncsc1-c1ccc([C@H](C)NC(=O)[C@@H]2C[C@@H](O)CN2C(=O)[C@@H](c2cc(O[C@@H](C)CN3CCC(N4CCN5c6cc(-c7ccccc7O)nnc6NCC5(C)C4)C3)no2)C(C)C)cc1` (stereo partly drawn) [Example 64, (2S,4R)-4-hydroxy-1-((2R)-2-(3-(((2S)-1-(3-(2-(2-hydroxyphenyl)-6a-methyl-5,6,6a,7,9,10-hexahydro-8H-pyrazino[1′,2′:4,5]pyrazino[2,3-c]pyridazin-8-yl)pyrrolidin-1-yl)propan-2-yl)oxy)isoxazol-5-yl)-3-methylbutanoyl)-N-((S)-1-(4-(4-methylthiazol-5-yl)phenyl)ethyl)pyrrolidine-2-carboxamide], on SMARCA4, the DC50 is less than 100 nM and the Dmax was greater than 75%. In addition, at SMARCA2, the DC50 was less than 100 nM and the Dmax was greater than 75%.

For the compound `Cc1ncsc1-c1ccc([C@H](C)NC(=O)[C@@H]2C[C@@H](O)CN2C(=O)[C@@H](c2cc(OC(C)CN3CCCC(CN4CCN5c6cc(-c7ccccc7O)nnc6NC[C@H]5C4)CC3)no2)C(C)C)cc1` (stereo partly drawn) [Example 68, (2S,4R)-4-hydroxy-1-((2R)-2-(3-((1-(4-(((S)-2-(2-hydroxyphenyl)-5,6,6a,7,9,10-hexahydro-8H-pyrazino[1′,2′:4,5]pyrazino[2,3-c]pyridazin-8-yl)methyl)azepan-1-yl)propan-2-yl)oxy)isoxazol-5-yl)-3-methylbutanoyl)-N-((S)-1-(4-(4-methylthiazol-5-yl)phenyl)ethyl)pyrrolidine-2-carboxamide], at SMARCA4, the DC50 lay in the range of 100 to 1000 nM and the Dmax is greater than 75%. Also, on SMARCA2, the DC50 was less than 100 nM and the Dmax was greater than 75%.

For `Cc1ncsc1-c1ccc([C@H](C)NC(=O)[C@@H]2C[C@@H](O)CN2C(=O)[C@@H](c2cc(OCCN3CCC(N4CCN5c6cc(-c7ccccc7O)nnc6NCC5(C)C4)C3)no2)C(C)C)cc1` (stereo partly drawn) [Example 71, (2S,4R)-4-hydroxy-1-((2R)-2-(3-(2-(3-(2-(2-hydroxyphenyl)-6a-methyl-5,6,6a,7,9,10-hexahydro-8H-pyrazino[1′,2′:4,5]pyrazino[2,3-c]pyridazin-8-yl)pyrrolidin-1-yl)ethoxy)isoxazol-5-yl)-3-methylbutanoyl)-N-((S)-1-(4-(4-methylthiazol-5-yl)phenyl)ethyl)pyrrolidine-2-carboxamide], the DC50 on SMARCA4 and at SMARCA2 was less than 100 nM each time. In addition, the Dmax on SMARCA4 and on SMARCA2 was greater than 75% throughout.

With `Cc1ncsc1-c1ccc([C@H](C)NC(=O)[C@@H]2C[C@@H](O)CN2C(=O)[C@@H](c2cc(OCCN3CCC(N4CCN5c6cc(-c7ccccc7O)nnc6NCC5(C)C4)C3)no2)C(C)C)cc1` (stereo partly drawn) [Example 72, (2S,4R)-4-hydroxy-1-((2R)-2-(3-(2-(3-(2-(2-hydroxyphenyl)-6a-methyl-5,6,6a,7,9,10-hexahydro-8H-pyrazino[1′,2′:4,5]pyrazino[2,3-c]pyridazin-8-yl)pyrrolidin-1-yl)ethoxy)isoxazol-5-yl)-3-methylbutanoyl)-N-((S)-1-(4-(4-methylthiazol-5-yl)phenyl)ethyl)pyrrolidine-2-carboxamide], the DC50 on SMARCA4 and at SMARCA2 was less than 100 nM in each case.

As to `Cc1ncsc1-c1ccc([C@H](C)NC(=O)[C@@H]2C[C@@H](O)CN2C(=O)[C@@H](c2cc(O[C@H](C)C(=O)N3CCC(N4CCN5c6cc(-c7ccccc7O)nnc6NC[C@H]5C4)CC3)no2)C(C)C)cc1` [Example 73, (2S,4R)-4-hydroxy-1-((R)-2-(3-(((R)-1-(4-((S)-2-(2-hydroxyphenyl)-5,6,6a,7,9,10-hexahydro-8H-pyrazino[1′,2′:4,5]pyrazino[2,3-c]pyridazin-8-yl)piperidin-1-yl)-1-oxopropan-2-yl)oxy)isoxazol-5-yl)-3-methylbutanoyl)-N-((S)-1-(4-(4-methylthiazol-5-yl)phenyl)ethyl)pyrrolidine-2-carboxamide], the figures for the DC50 at SMARCA4 and on SMARCA2 were 100 to 1000 nM and less than 100 nM, respectively. For the same compound, the Dmax on SMARCA4 is 50 to 75%; at SMARCA2, greater than 75%.

Regarding `Cc1ncsc1-c1ccc([C@H](C)NC(=O)[C@@H]2C[C@@H](O)CN2C(=O)[C@@H](c2cc(OCCN3CCC(N4CCN5c6cc(-c7ccccc7O)nnc6NC[C@H]5C4)CC3)no2)C(C)C)cc1` [Example 76, (2S,4R)-4-hydroxy-1-((R)-2-(3-(2-(4-((S)-2-(2-hydroxyphenyl)-5,6,6a,7,9,10-hexahydro-8H-pyrazino[1′,2′:4,5]pyrazino[2,3-c]pyridazin-8-yl)piperidin-1-yl)ethoxy)isoxazol-5-yl)-3-methylbutanoyl)-N-((S)-1-(4-(4-methylthiazol-5-yl)phenyl)ethyl)pyrrolidine-2-carboxamide], at SMARCA4, the DC50 is less than 100 nM and the Dmax is greater than 75%. Besides, on SMARCA2, the DC50 is less than 100 nM and the Dmax is greater than 75%.

Take `Cc1ncsc1-c1ccc([C@H](C)NC(=O)[C@@H]2C[C@@H](O)CN2C(=O)[C@@H](c2cc(OCCN3CC=C(CN4CCN5c6cc(-c7ccccc7O)nnc6NC[C@H]5C4)CC3)no2)C(C)C)cc1` [Example 90, (2S,4R)-4-hydroxy-1-((R)-2-(3-(2-(4-(((S)-2-(2-hydroxyphenyl)-5,6,6a,7,9,10-hexahydro-8H-pyrazino[1′,2′:4,5]pyrazino[2,3-c]pyridazin-8-yl)methyl)-3,6-dihydropyridin-1(2H)-yl)ethoxy)isoxazol-5-yl)-3-methylbutanoyl)-N-((S)-1-(4-(4-methylthiazol-5-yl)phenyl)ethyl)pyrrolidine-2-carboxamide]: on SMARCA4, the DC50 was less than 100 nM and the Dmax is greater than 75%. Further, at SMARCA2, the DC50 was less than 100 nM and the Dmax is greater than 75%.

As to `Cc1ncsc1-c1ccc([C@H](C)NC(=O)[C@@H]2C[C@@H](O)CN2C(=O)[C@@H](c2cc(CCCN(C)CCN3CCN4c5cc(-c6ccccc6O)nnc5NC[C@H]4C3)no2)C(C)C)cc1` [Example 92, (2S,4R)-4-hydroxy-1-((R)-2-(3-(3-((2-((S)-2-(2-hydroxyphenyl)-5,6,6a,7,9,10-hexahydro-8H-pyrazino[1′,2′:4,5]pyrazino[2,3-c]pyridazin-8-yl)ethyl)(methyl)amino)propyl)isoxazol-5-yl)-3-methylbutanoyl)-N-((S)-1-(4-(4-methylthiazol-5-yl)phenyl)ethyl)pyrrolidine-2-carboxamide], on SMARCA4, the DC50 was no less than 10000 nM and the Dmax was no more than 50%. Besides, on SMARCA2, the DC50 was less than 100 nM and the Dmax was greater than 75%.
